Test results taken from ChEMBL document CHEMBL1909046, “DrugMatrix in vitro pharmacology data”.

Key:
[1] = molecular target: Vasopressin V1a receptor (Homo sapiens, UniProt P37288); assay type: cell membranes, Membrane; conditions: hek293; note: in other assays of this panel Not Active means under 50% inhibition at 10 µM
[2] = molecular target: T1, Vasoactive intestinal polypeptide receptor 1 (Homo sapiens, UniProt P32241); assay type: cell membranes, Membrane; conditions: ht-29; note: in other assays of this panel Not Active means under 50% inhibition at 10 µM
T1 sequence (P32241 whole entry): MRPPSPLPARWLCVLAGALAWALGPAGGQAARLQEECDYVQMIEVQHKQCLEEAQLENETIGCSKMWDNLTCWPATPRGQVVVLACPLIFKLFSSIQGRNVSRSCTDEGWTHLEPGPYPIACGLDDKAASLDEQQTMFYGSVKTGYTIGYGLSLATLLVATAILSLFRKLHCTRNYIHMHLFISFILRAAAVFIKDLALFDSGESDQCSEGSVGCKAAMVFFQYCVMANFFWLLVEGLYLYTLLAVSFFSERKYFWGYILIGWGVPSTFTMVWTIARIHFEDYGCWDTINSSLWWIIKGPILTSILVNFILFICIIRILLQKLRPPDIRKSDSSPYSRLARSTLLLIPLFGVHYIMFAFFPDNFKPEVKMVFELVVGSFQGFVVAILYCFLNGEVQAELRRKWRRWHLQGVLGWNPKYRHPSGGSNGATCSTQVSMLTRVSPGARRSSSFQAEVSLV

[3] = DRUGMATRIX: beta-Lactamase enzyme inhibition (substrate: Nitrocefin); set-up: species or system Bacillus cereus; conditions: Not Active = under 50% inhibition at 10 µM
[4] = molecular target: Mitogen-activated protein kinase 1 (Homo sapiens, UniProt P28482); assay: DRUGMATRIX: Protein Serine/Threonine Kinase, ERK2 enzyme inhibition (substrate: Myelin Basic Protein); set-up: species or system Escherichia coli; conditions: Not Active = under 50% inhibition at 10 µM
Mitogen-activated protein kinase 1, sequence (P28482 whole entry): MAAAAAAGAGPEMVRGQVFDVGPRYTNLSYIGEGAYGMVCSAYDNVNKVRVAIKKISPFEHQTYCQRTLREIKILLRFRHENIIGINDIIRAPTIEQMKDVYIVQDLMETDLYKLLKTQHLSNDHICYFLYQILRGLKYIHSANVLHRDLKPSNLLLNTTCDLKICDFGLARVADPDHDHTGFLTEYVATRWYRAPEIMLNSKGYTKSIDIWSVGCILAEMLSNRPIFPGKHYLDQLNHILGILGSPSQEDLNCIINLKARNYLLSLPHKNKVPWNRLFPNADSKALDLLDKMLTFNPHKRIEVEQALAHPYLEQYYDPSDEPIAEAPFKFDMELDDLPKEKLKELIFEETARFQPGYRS

[5] = molecular target: Kappa-type opioid receptor (Homo sapiens, UniProt P41145); assay: DRUGMATRIX: Opiate kappa (OP2, KOP) radioligand binding (ligand: [3H] Diprenorphine); assay type: cell membranes, HEK293, Membrane; conditions: hek293; Not Active = under 50% inhibition at 10 µM
Kappa-type opioid receptor, sequence (P41145 whole entry): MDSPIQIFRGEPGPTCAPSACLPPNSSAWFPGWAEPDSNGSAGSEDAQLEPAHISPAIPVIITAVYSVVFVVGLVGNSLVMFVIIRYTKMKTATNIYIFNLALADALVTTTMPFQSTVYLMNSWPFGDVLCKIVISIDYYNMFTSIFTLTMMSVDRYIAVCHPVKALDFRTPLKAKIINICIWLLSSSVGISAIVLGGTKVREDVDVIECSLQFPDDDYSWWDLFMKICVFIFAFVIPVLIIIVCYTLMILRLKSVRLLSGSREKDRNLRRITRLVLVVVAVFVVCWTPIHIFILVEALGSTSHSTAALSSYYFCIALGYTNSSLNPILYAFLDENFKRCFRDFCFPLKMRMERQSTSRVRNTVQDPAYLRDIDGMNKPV

[6] = DRUGMATRIX: GABAA, Chloride Channel, TBOB radioligand binding (ligand: [3H] TBOB); assay type: cell membranes, Rattus norvegicus, Wistar, Cerebral cortex, Membrane; conditions: Not Active = under 50% inhibition at 10 µM
[7] = molecular target: T2, Adenosine receptor A3 (Homo sapiens, UniProt P0DMS8); assay type: cell membranes, CHO-K1, Membrane; conditions: cho-k1;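 note: radioligand binding assay with AB-MECA serving as the labeled ligand; in other assays of this panel Not Active means under 50% inhibition at 10 µM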
T2 sequence (P0DMS8 whole entry): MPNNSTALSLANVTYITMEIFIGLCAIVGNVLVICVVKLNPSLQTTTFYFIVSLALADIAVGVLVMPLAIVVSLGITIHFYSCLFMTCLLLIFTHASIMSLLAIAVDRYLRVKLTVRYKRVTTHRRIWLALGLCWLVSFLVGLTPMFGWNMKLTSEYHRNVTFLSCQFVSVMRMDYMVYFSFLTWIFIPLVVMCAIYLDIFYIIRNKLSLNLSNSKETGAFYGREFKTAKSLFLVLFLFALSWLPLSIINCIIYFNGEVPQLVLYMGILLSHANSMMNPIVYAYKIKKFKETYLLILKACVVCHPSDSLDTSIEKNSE

Vasopressin V1a receptor, sequence (P37288 whole entry): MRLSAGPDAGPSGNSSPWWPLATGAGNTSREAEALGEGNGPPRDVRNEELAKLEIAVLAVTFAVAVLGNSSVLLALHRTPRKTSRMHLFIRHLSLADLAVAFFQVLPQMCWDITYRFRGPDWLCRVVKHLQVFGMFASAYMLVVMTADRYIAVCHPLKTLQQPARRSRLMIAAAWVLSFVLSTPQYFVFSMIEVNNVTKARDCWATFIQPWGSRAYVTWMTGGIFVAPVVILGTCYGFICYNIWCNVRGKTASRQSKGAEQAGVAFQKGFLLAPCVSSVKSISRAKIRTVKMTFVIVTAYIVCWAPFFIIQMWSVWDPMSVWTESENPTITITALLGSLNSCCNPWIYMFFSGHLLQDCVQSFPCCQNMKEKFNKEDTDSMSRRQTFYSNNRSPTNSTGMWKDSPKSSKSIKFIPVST

C=CCc1ccc(O)c(OC)c1 [EUGENOL]
Not Active: IC50 [1] | IC50 [2] | IC50 [3] | Ki [3] | IC50 [4] | IC50 [5] | IC50 [6] | Ki [6] | IC50 [7]

CCn1cc(C(=O)O)c(=O)c2cnc(N3CCCC3)nc21 [PIROMIDIC ACID]
Not Active: IC50 [1] | IC50 [2] | IC50 [3] | Ki [3] | IC50 [4] | IC50 [5] | IC50 [6] | Ki [6] | IC50 [7]

COC(=O)Nc1nc2ccc(C(=O)c3cccs3)cc2[nH]1 [NOCODAZOLE]
Not Active: IC50 [1] | IC50 [2] | IC50 [3] | Ki [3] | IC50 [4] | IC50 [5] | IC50 [6] | Ki [6] | IC50 [7]

CC(=O)[C@H]1[C@H](C#N)C[C@H]2[C@@H]3CC=C4C[C@@H](O)CC[C@]4(C)[C@H]3CC[C@@]21C [PREGNENOLONE CARBONITRILE]
Not Active: IC50 [1] | IC50 [2] | IC50 [3] | Ki [3] | IC50 [4] | IC50 [5] | IC50 [6] | Ki [6] | IC50 [7]

C[C@@H]1CC[C@@]2(OC1)O[C@H]1[C@@H](O)[C@H]3[C@@H]4CC[C@H]5C[C@@H](O[C@@H]6O[C@H](CO)[C@H](O[C@@H]7O[C@H](CO)C(O)[C@H](O[C@@H]8OC[C@@H](O)[C@H](O)[C@H]8O)[C@H]7O[C@@H]7O[C@H](CO)[C@H](O)[C@H](O[C@@H]8O[C@H](CO)[C@@H](O)[C@H](O)[C@H]8O)[C@H]7O)[C@H](O)[C@H]6O)[C@H](O)C[C@]5(C)[C@H]4CC[C@]3(C)[C@H]1[C@@H]2C (stereo not given in full) [DIGITONIN]
Not Active: IC50 [1] | IC50 [2] | IC50 [3] | Ki [3] | IC50 [4] | IC50 [5] | IC50 [6] | Ki [6] | IC50 [7]
